{
  "source": "patent US20240360082A1",
  "about": "“SUBSTITUTED PYRIDONE COMPOUNDS USEFUL TO TREAT ORTH[…]” (priority 2021, published 2024)",
  "note": "pIC50: −log10 of the molar value.",
  "data": [
    {"target": "influenza A virus minigenome (PB2, PB1, PA, NP proteins) (UniProt P04665)", "sequence (P04665 whole entry)": "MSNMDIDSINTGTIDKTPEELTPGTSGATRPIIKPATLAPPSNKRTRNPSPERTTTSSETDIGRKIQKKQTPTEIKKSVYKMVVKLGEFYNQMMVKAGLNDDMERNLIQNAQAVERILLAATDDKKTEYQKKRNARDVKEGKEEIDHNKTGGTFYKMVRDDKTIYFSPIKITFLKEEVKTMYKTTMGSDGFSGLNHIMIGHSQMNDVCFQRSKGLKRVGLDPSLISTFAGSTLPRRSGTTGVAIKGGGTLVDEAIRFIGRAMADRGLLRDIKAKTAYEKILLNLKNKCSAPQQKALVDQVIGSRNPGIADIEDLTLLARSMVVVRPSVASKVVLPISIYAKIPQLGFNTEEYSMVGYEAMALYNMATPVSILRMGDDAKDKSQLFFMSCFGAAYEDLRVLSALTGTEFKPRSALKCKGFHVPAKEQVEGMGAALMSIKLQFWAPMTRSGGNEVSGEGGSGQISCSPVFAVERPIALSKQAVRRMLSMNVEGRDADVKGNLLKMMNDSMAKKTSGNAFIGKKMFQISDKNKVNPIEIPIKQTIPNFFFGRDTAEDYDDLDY", "format": "cell-based", "conditions": "read-out: RNP_ Hubei B IC50", "values": [
      {"smiles": "CN(C)C(=O)[C@@]1(C)COC[C@@H](COc2ccc(-c3cc(C(N)=O)c(=O)[nH]c3C(F)(F)F)cc2)O1", "note": "[Example 409, 5-(4-(((2S,6R)-6-(dimethylcarbamoyl)-6-methyl-1,4-dioxan-2-yl)methoxy)phenyl)-2-oxo-6-(trifluoromethyl)-1,2-dihydropyridine-3-carboxamide]", "pIC50": "5.00 to 5.30"},
      {"smiles": "NC(=O)c1cc(-c2ccc(OCC3COCC(C(F)F)O3)cc2)c(C(F)(F)F)[nH]c1=O", "note": "(single isomer, unassigned) [Example 349, 5-(4-((6-(difluoromethyl)-1,4-dioxan-2-yl)methoxy)phenyl)-2-oxo-6-(trifluoromethyl)-1,2-dihydropyridine-3-carboxamide]", "pIC50": "5.00 to 5.30"},
      {"smiles": "NC(=O)c1cc(-c2ccc(OCC3COCC(=O)N3)cc2)c(C(F)(F)F)[nH]c1=O", "note": "(stereo not drawn) [Example 250, 2-oxo-5-(4-((5-oxomorpholin-3-yl)methoxy)phenyl)-6-(trifluoromethyl)-1,2-dihydropyridine-3-carboxamide]", "pIC50": "4.30 to 4.60"},
      {"smiles": "NC(=O)c1cc(-c2ccc(OCC3COCC(F)(F)C3)cc2)c(C(F)(F)F)[nH]c1=O", "note": "(single isomer, unassigned) [Example 337, 5-(4-((5,5-difluorotetrahydro-2H-pyran-3-yl)methoxy)phenyl)-2-oxo-6-(trifluoromethyl)-1,2-dihydropyridine-3-carboxamide]", "pIC50": "5.00 to 5.30"},
      {"smiles": "NC(=O)c1cc(-c2ccc(OCC3C[C@@H]4CC[C@H]3O4)cc2)c(C(F)(F)F)[nH]c1=O", "note": "(single isomer, unassigned) [Example 314, 5-(4-((7-oxabicyclo[2.2.1]heptan-2-yl)methoxy)phenyl)-2-oxo-6-(trifluoromethyl)-1,2-dihydropyridine-3-carboxamide]", "pIC50": "4.60 to 5.00"},
      {"smiles": "CC1(C2COCC(COc3ccc(-c4cc(C(N)=O)c(=O)[nH]c4C(F)(F)F)cc3)O2)CC1", "note": "(single isomer, unassigned) [Example 356, 5-(4-((6-(1-methylcyclopropyl)-1,4-dioxan-2-yl)methoxy)phenyl)-2-oxo-6-(trifluoromethyl)-1,2-dihydropyridine-3-carboxamide]", "pIC50": "5.00 to 5.30"},
      {"smiles": "C[C@]1(CS(=O)(=O)C2CC2)COC[C@@H](COc2ccc(-c3cc(C(N)=O)c(=O)[nH]c3C(F)(F)F)cc2)O1", "note": "[Example 413, 5-(4-(((2S,6R)-6-((cyclopropylsulfonyl)methyl)-6-methyl-1,4-dioxan-2-yl)methoxy)phenyl)-2-oxo-6-(trifluoromethyl)-1,2-dihydropyridine-3-carboxamide]", "pIC50": "5.00 to 5.30"},
      {"smiles": "NC(=O)c1cc(-c2ccc(OCC3COC(CF)CO3)cc2)c(C(F)(F)F)[nH]c1=O", "note": "(single isomer, unassigned) [Example 343, 5-(4-((5-(fluoromethyl)-1,4-dioxan-2-yl)methoxy)phenyl)-2-oxo-6-(trifluoromethyl)-1,2-dihydropyridine-3-carboxamide]", "pIC50": "5.00 to 5.30"},
      {"smiles": "NC(=O)c1cc(-c2ccc(OCC3COCC(Cn4cccn4)O3)cc2)c(C(F)(F)F)[nH]c1=O", "note": "(single isomer, unassigned) [Example 377, 5-(4-((6-((1H-pyrazol-1-yl)methyl)-1,4-dioxan-2-yl)methoxy)phenyl)-2-oxo-6-(trifluoromethyl)-1,2-dihydropyridine-3-carboxamide]", "pIC50": "5.00 to 5.30"},
      {"smiles": "Cc1nnsc1COc1ccc(-c2cc(C(N)=O)c(=O)[nH]c2C(F)(F)F)cc1", "note": "[Example 273, 5-(4-((4-methyl-1,2,3-thiadiazol-5-yl)methoxy)phenyl)-2-oxo-6-(trifluoromethyl)-1,2-dihydropyridine-3-carboxamide]", "pIC50": "4.60 to 5.00"},
      {"smiles": "CCC1(COc2ccc(-c3cc(C(N)=O)c(=O)[nH]c3C(F)(F)F)cc2)COC1", "note": "[Example 228]", "pIC50": "4.60 to 5.00"},
      {"smiles": "N#CCC1(COc2ccc(-c3cc(C(N)=O)c(=O)[nH]c3C(F)(F)F)cc2)COC1", "note": "[Example 229, 5-(4-((3-(cyanomethyl)oxetan-3-yl)methoxy)phenyl)-2-oxo-6-(trifluoromethyl)-1,2-dihydropyridine-3-carboxamide]", "pIC50": "4.30 to 4.60"},
      {"smiles": "C[C@]1(COCC(F)(F)F)COC[C@@H](COc2ccc(-c3cc(C(N)=O)c(=O)[nH]c3C(F)(F)F)cc2)O1", "note": "[Example 432, 5-(4-(((2S,6R)-6-methyl-6-((2,2,2-trifluoroethoxy)methyl)-1,4-dioxan-2-yl)methoxy)phenyl)-2-oxo-6-(trifluoromethyl)-1,2-dihydropyridine-3-carboxamide]", "pIC50": "5.00 to 5.30"},
      {"smiles": "NC(=O)c1cc(-c2ccc(OCC3C[C@@H]4CC[C@H]3O4)cc2)c(C(F)(F)F)[nH]c1=O", "note": "(single isomer, unassigned) [Example 312, 5-(4-((7-oxabicyclo[2.2.1]heptan-2-yl)methoxy)phenyl)-2-oxo-6-(trifluoromethyl)-1,2-dihydropyridine-3-carboxamide]", "pIC50": "5.00 to 5.30"},
      {"smiles": "C[C@]1(CO)COC[C@@H](COc2ccc(-c3cc(C(N)=O)c(=O)[nH]c3C(F)(F)F)cc2)O1", "note": "[Example 433, 5-(4-(((2S,6S)-6-(hydroxymethyl)-6-methyl-1,4-dioxan-2-yl)methoxy)phenyl)-2-oxo-6-(trifluoromethyl)-1,2-dihydropyridine-3-carboxamide]", "pIC50": "5.00 to 5.30"}
    ]},
    {"target": "influenza A virus minigenome (PB2, PB1, PA, NP proteins) (UniProt P04665)", "format": "cell-based", "conditions": "read-out: RNP_Hubei B", "values": [
      {"smiles": "NC(=O)c1cc(-c2ccc(OCC3CNCCCO3)cc2)c(C(F)(F)F)[nH]c1=O", "note": "(stereo not drawn) [Example 195, 5-(4-((1,4-oxazepan-2-yl)methoxy)phenyl)-2-oxo-6-(trifluoromethyl)-1,2-dihydropyridine-3-carboxamide]", "pIC50": "4.30 to 4.60"},
      {"smiles": "CN(C)Cc1ccc(-c2cc(C(N)=O)c(=O)[nH]c2C(F)(F)F)cc1", "note": "[Example 45, 5-(4-((dimethylamino)methyl)phenyl)-2-oxo-6-(trifluoromethyl)-1,2-dihydropyridine-3-carboxamide]", "pIC50": "4.30 to 4.60"},
      {"smiles": "NC(=O)c1cc(-c2ccc(CO)cc2)c(C(F)(F)F)[nH]c1=O", "note": "[Example 2, 5-(4-(hydroxymethyl)phenyl)-2-oxo-6-(trifluoromethyl)-1,2-dihydropyridine-3-carboxamide]", "pIC50": "4.30 to 4.60"},
      {"smiles": "CC(c1ccc(-c2cc(C(N)=O)c(=O)[nH]c2C(F)(F)F)cc1)N1CCOCC1", "note": "(stereo not drawn) [Example 33, 5-(4-(1-morpholinoethyl)phenyl)-2-oxo-6-(trifluoromethyl)-1,2-dihydropyridine-3-carboxamide]", "pIC50": "5.30 to 6.00"},
      {"smiles": "CC(Oc1ccc(-c2cc(C(N)=O)c(=O)[nH]c2C(F)(F)F)cc1)c1cncnc1", "note": "(single isomer, unassigned) [Example 95, (R or S)-2-oxo-5-(4-(1-(pyrimidin-5-yl)ethoxy)phenyl)-6-(trifluoromethyl)-1,2-dihydropyridine-3-carboxamide]", "pIC50": "4.30 to 4.60"},
      {"smiles": "CC1(C)CN(Cc2ccc(-c3cc(C(N)=O)c(=O)[nH]c3C(F)(F)F)cc2)CCO1", "note": "[Example 39, 5-(4-((2,2-dimethylmorpholino)methyl)phenyl)-2-oxo-6-(trifluoromethyl)-1,2-dihydropyridine-3-carboxamide]", "pIC50": "4.60 to 5.00"},
      {"smiles": "CN1CCC(COc2ccc(-c3cc(C(N)=O)c(=O)[nH]c3C(F)(F)F)cc2)CC1", "note": "[Example 83, 5-(4-((1-methylpiperidin-4-yl)methoxy)phenyl)-2-oxo-6-(trifluoromethyl)-1,2-dihydropyridine-3-carboxamide]", "pIC50": "4.30 to 4.60"},
      {"smiles": "NC(=O)c1cc(-c2ccc(CN3C[C@H]4CC[C@@H](C3)O4)cc2)c(C(F)(F)F)[nH]c1=O", "note": "[Example 31, 5-(4-(((1R,5S)-8-oxa-3-azabicyclo[3.2.1]octan-3-yl)methyl)phenyl)-2-oxo-6-(trifluoromethyl)-1,2-dihydropyridine-3-carboxamide]", "pIC50": "5.30 to 6.00"},
      {"smiles": "COC1CCOC(COc2ccc(-c3cc(C(N)=O)c(=O)[nH]c3C(F)(F)F)cc2)C1", "note": "(single isomer, unassigned) [Example 202, 5-(4-((4-methoxytetrahydro-2H-pyran-2-yl)methoxy)phenyl)-2-oxo-6-(trifluoromethyl)-1,2-dihydropyridine-3-carboxamide]", "pIC50": "4.60 to 5.00"},
      {"smiles": "NC(=O)c1cc(-c2ccc(OCc3cnc(NCC4CC4)nc3)cc2)c(C(F)(F)F)[nH]c1=O", "note": "[Example 161]", "pIC50": "4.60 to 5.00"},
      {"smiles": "N#Cc1ccc(COc2ccc(-c3cc(C(N)=O)c(=O)[nH]c3C(F)(F)F)cc2)cc1", "note": "[Example 77, 5-(4-((4-cyanobenzyl)oxy)phenyl)-2-oxo-6-(trifluoromethyl)-1,2-dihydropyridine-3-carboxamide]", "pIC50": "4.60 to 5.00"},
      {"smiles": "NC(=O)c1cc(-c2ccc(OCc3ccccc3)cc2)c(C(F)(F)F)[nH]c1=O", "note": "[Example 4, 5-(4-(benzyloxy)phenyl)-2-oxo-6-(trifluoromethyl)-1,2-dihydropyridine-3-carboxamide]", "pIC50": "5.00 to 5.30"},
      {"smiles": "CC1CN(Cc2ccc(-c3cc(C(N)=O)c(=O)[nH]c3C(F)(F)F)cc2)CCO1", "note": "(stereo not drawn) [Example 29, 5-(4-((2-methylmorpholino)methyl)phenyl)-2-oxo-6-(trifluoromethyl)-1,2-dihydropyridine-3-carboxamide]", "pIC50": "4.60 to 5.00"},
      {"smiles": "NC(=O)c1cc(-c2ccc(OCC3CNC(=O)C3)cc2)c(C(F)(F)F)[nH]c1=O", "note": "(stereo not drawn) [Example 88, 2-oxo-5-(4-((5-oxopyrrolidin-3-yl)methoxy)phenyl)-6-(trifluoromethyl)-1,2-dihydropyridine-3-carboxamide]", "pIC50": "5.00 to 5.30"},
      {"smiles": "NC(=O)c1cc(-c2ccc(OCc3ccn4nnnc4c3)cc2)c(C(F)(F)F)[nH]c1=O", "note": "[Example 90, 2-oxo-5-(4-(tetrazolo[1,5-a]pyridin-7-ylmethoxy)phenyl)-6-(trifluoromethyl)-1,2-dihydropyridine-3-carboxamide]", "pIC50": "4.30 to 4.60"},
      {"smiles": "COCCN1CCOC(COc2ccc(-c3cc(C(N)=O)c(=O)[nH]c3C(F)(F)F)cc2)C1", "note": "(stereo not drawn) [Example 193, 5-(4-((4-(2-methoxyethyl)morpholin-2-yl)methoxy)phenyl)-2-oxo-6-(trifluoromethyl)-1,2-dihydropyridine-3-carboxamide]", "pIC50": "4.30 to 4.60"},
      {"smiles": "NC(=O)c1cc(-c2ccc(OCc3ccc4nonc4c3)cc2)c(C(F)(F)F)[nH]c1=O", "note": "[Example 71, 5-(4-(benzo[c][1,2,5]oxadiazol-5-ylmethoxy)phenyl)-2-oxo-6-(trifluoromethyl)-1,2-dihydropyridine-3-carboxamide]", "pIC50": "4.30 to 4.60"},
      {"smiles": "Cc1cc(-c2cc(C(N)=O)c(=O)[nH]c2C(F)(F)F)ccc1CN1CCOCC1", "note": "[Example 43, 5-(3-methyl-4-(morpholinomethyl)phenyl)-2-oxo-6-(trifluoromethyl)-1,2-dihydropyridine-3-carboxamide]", "pIC50": "5.30 to 6.00"}
    ]}
  ]
}
